The source of these data is patent publication US11208399B2, “NLRP3 inflammasome inhibitors” (Novartis AG, priority 2019, dated 2021).

One assay deals with NLRP3 inflammasome. In words: IL-1β secretion assay in PMA-differentiated THP-1 cells, nigericin-activated (HTRF). In kind it is cell-based. Here is the method:
10 μL supernatant was removed, and IL-1p levels were monitored using an HTRF assay (CisBio, #621L1PEC) according to manufacturers' instructions. Viability and pyroptosis was monitored with the addition of PrestoBlue cell viability reagent (Life Technologies, #A13261) directly to the cell culture plate.
IC50 values were calculated from the plot of percentage of inhibition versus the inhibitor concentration by a logistics fit according to: y=A2+(A1−A2)/(1+(x/IC50)^p) where y is the %-inhibition at the inhibitor concentration, x. A1 is the lowest inhibition value, i.e. 0%, and A2 the maximum inhibition value, i.e. 100%. The exponent, p, is the Hill coefficient. The curve fitting was conducted with an internally developed software suite.
NLRP3-dependent IL-1β secretion was stimulated in PMA-differentiated THP-1 cells by the addition of nigericin, and cytokines were measured in the […] after 3 hours. As discussed above, activation of the NLRP3 inflammasome requires both an NF-kB-dependent priming step and the addition of a NLRP3 activator.
For orientation: TR-FRET usually uses a lanthanide donor and a delayed reading to cut background.

For assay [1], the system named is NF-kB-dependent TNF-α secretion. The assay is described as follows: TNF-α secretion assay in THP-1 cells (counter screen, HTRF). The format is cell-based. The conditions noted are these: Pam3CSK4-stimulated, 3 hours. Summed up:
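THP-1 cells were treated with compound, then stimulated with 1 μg/mL LPS or 100 ng/mL Pam3CSK4 for 3 h. Secreted TNF-α in supernatant was measured by HTRF, with viability monitored in parallel. IC50 from logistic fit of % inhibition versus concentration with Hill coefficient.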
In general terms: The purpose of a counterscreen is to sort out artefacts and off-target activity.

The mark [2] stands for this setting: Homo sapiens, 15 μM nigericin, 3 hours, read-out: IL-1β IC50.

Where a name gives a salt, the structure may show the parent alone. Read-outs that look alike come from different tables or passages of the source.

The IC50 is the point on the concentration scale where inhibition reaches its midpoint. Regarding `Cc1cc(C(F)(F)F)cc(O)c1-c1ccc(NCC(O)(C(F)(F)F)C(F)(F)F)nn1` [Ex 10, 3-Methyl-2-(6-((3,3,3-trifluoro-2-hydroxy-2-(trifluoromethyl)propyl)amino)pyridazin-3-yl)-5-(trifluoromethyl)phenol], the IC50 in the assay on NLRP3 inflammasome (setting [2]) was 349 nM; in assay [1] (Homo sapiens) it was over 33000 nM.

Regarding `Cc1cc(-c2c(C)cc(C(F)(F)F)cc2O)nnc1NCC(C)(C)O` [Ex 72, 2-(6-((2-Hydroxy-2-methylpropyl)amino)-5-methylpyridazin-3-yl)-3-methyl-5-(trifluoromethyl)phenol], the IC50 was 44.9 nM with NLRP3 inflammasome (setting [2]) and over 100000 nM in assay [1] (Homo sapiens).

With `Cc1cc(C(F)(F)F)cc(O)c1-c1ccc(NC[C@@](C)(O)CO)nn1` [Ex 88b, (R)-3-((6-(2-Hydroxy-6-methyl-4-(trifluoromethyl)phenyl)pyridazin-3-yl)amino)-2-methylpropane-1,2-diol], the values for the IC50 (with NLRP3 inflammasome (setting [2]); in assay [1] (Homo sapiens)) were 60.5 nM and over 100000 nM, respectively.

On to `Cc1cc(C(F)(F)F)cc(O)c1-c1ccc(NC[C@H]2CC(F)(F)CN2)nn1` [Ex 23, (R)-2-(6-(((4,4-Difluoropyrrolidin-2-yl)methyl)amino)pyridazin-3-yl)-3-methyl-5-(trifluoromethyl)phenol], for which the IC50 in the assay on NLRP3 inflammasome (setting [2]) was 93.4 nM; in assay [1] (Homo sapiens), over 100000 nM.

Turning to `Cc1cc(C(F)(F)F)cc(O)c1-c1ccc(NCC(C)(C)N)nn1` [Ex 29, 2-(6-((2-Amino-2-methylpropyl)amino)pyridazin-3-yl)-3-methyl-5-(trifluoromethyl)phenol], the IC50 in the assay with NLRP3 inflammasome (setting [2]) is 169 nM; in assay [1] (Homo sapiens), over 100000 nM.

Turning to `Cc1cc(C(F)(F)F)cc(O)c1-c1ccc(N[C@@H]2CC[C@@H](O)[C@H]2O)nn1` [Ex 89b, (1R,2S,3R)-3-((6-(2-Hydroxy-6-methyl-4-(trifluoromethyl)phenyl)pyridazin-3-yl)amino)cyclopentane-1,2-diol], the IC50 was 182 nM in the assay with NLRP3 inflammasome (setting [2]) and over 100000 nM in assay [1] (Homo sapiens).

Regarding `Cc1cc(C(F)(F)F)cc(O)c1-c1ccc(N[C@@H]2CCC[C@@H](O)C2)nn1` [Ex 58, 2-(6-(((1R,3R)-3-Hydroxycyclohexyl)amino)pyridazin-3-yl)-3-methyl-5-(trifluoromethyl)phenol], the results for the IC50 (in the assay on NLRP3 inflammasome (setting [2]); in assay [1] (Homo sapiens)) were 58.4 nM and over 100000 nM, respectively.

For the compound `Cc1cc(C(F)(F)F)cc(O)c1-c1ccc(NC[C@@H]2CCCCN2)nn1` [Ex 21, (S)-3-Methyl-2-(6-((piperidin-2-ylmethyl)amino)pyridazin-3-yl)-5-(trifluoromethyl)phenol], the IC50 was 48.4 nM in the assay with NLRP3 inflammasome (setting [2]) and over 100000 nM in assay [1] (Homo sapiens).

With `Cc1cc(C(F)(F)F)cc(O)c1-c1ccc(NC[C@](C)(O)CO)nn1` [Ex 88a, (S)-3-((6-(2-Hydroxy-6-methyl-4-(trifluoromethyl)phenyl)pyridazin-3-yl)amino)-2-methylpropane-1,2-diol], the IC50 with NLRP3 inflammasome (setting [2]) stood at 62.3 nM; in assay [1] (Homo sapiens), 41000 nM.

Turning to `Cc1cc(C(F)(F)F)cc(O)c1-c1ccc(NC[C@H]2CCCCN2)nn1` [Ex 20, (R)-3-Methyl-2-(6-((piperidin-2-ylmethyl)amino)pyridazin-3-yl)-5-(trifluoromethyl)phenol], the figures for the IC50 (in the assay on NLRP3 inflammasome (setting [2]); in assay [1] (Homo sapiens)) were 82.3 nM and over 100000 nM, respectively.

For the compound `Cc1cc(N[C@H]2C[C@@](C)(O)C2)nnc1-c1ccc(OC(F)(F)F)cc1O` [Ex 81, 2-(6-(((cis)-3-Hydroxy-3-methylcyclobutyl)amino)-4-methylpyridazin-3-yl)-5-(trifluoromethoxy)phenol], the IC50 was 130 nM in the assay with NLRP3 inflammasome (setting [2]) and over 100000 nM in assay [1] (Homo sapiens).

Consider `Cc1cc(C(F)(F)F)cc(O)c1-c1ccc(NC(C)(C)CO)nn1` [Ex 79, 2-(6-((1-Hydroxy-2-methylpropan-2-yl)amino)pyridazin-3-yl)-3-methyl-5-(trifluoromethyl)phenol], for which the IC50 was 370 nM in the assay with NLRP3 inflammasome (setting [2]) and over 100000 nM in assay [1] (Homo sapiens).

With `Cc1cc(-c2c(C)cc(C(F)(F)F)cc2O)nnc1N[C@@H]1CCC[N+](C)([O-])C1` (stereo partly drawn) [Ex 104, (3R)-3-((6-(2-Hydroxy-6-methyl-4-(trifluoromethyl)phenyl)-4-methylpyridazin-3-yl)amino)-1-methylpiperidine 1-oxide TFA-salt], the IC50 was 59 nM in the assay with NLRP3 inflammasome (setting [2]) and over 100000 nM in assay [1] (Homo sapiens).

`C[C@]1(O)C[C@@H](Nc2cc(C(F)(F)F)c(-c3ccc(Cl)cc3O)nn2)C1` [Ex 69, 5-Chloro-2-(6-(((cis)-3-hydroxy-3-methylcyclobutyl)amino)-4-(trifluoromethyl)pyridazin-3-yl)phenol]: the values for the IC50 (in the assay with NLRP3 inflammasome (setting [2]); in assay [1] (Homo sapiens)) were 431 nM and over 33000 nM, respectively.

Regarding `Cc1cc(C(F)(F)F)cc(O)c1-c1ccc(N[C@@H]2CCC[C@H]2O)nn1` (relative stereo) [Ex 24, (trans)-2-(6-((2-Hydroxycyclopentyl)amino)pyridazin-3-yl)-3-methyl-5-(trifluoromethyl)phenol], the IC50 with NLRP3 inflammasome (setting [2]) came out at 120 nM; in assay [1] (Homo sapiens), 37000 nM.

In the case of `Cc1cc(C(F)(F)F)cc(O)c1-c1ccc(N[C@@H]2CCC[C@H](O)C2)nn1` [Ex 3, 2-(6-(((1R,3S)-3-Hydroxycyclohexyl)amino)pyridazin-3-yl)-3-methyl-5-(trifluoromethyl)phenol], the results for the IC50 (in the assay on NLRP3 inflammasome (setting [2]); in assay [1] (Homo sapiens)) were 25.5 nM and over 100000 nM, respectively.

Turning to `Cc1cc(C(F)(F)F)cc(O)c1-c1ccc(N[C@@H]2CC[C@@H]3CC[C@H]2N3C)nn1` [Ex 85b, 3-Methyl-2-(6-(((1R,2R,5R)-8-methyl-8-azabicyclo[3.2.1]octan-2-yl)amino)pyridazin-3-yl)-5-(trifluoromethyl)phenol], the IC50 was 1.3 nM in the assay with NLRP3 inflammasome (read-out: IL-1β IC50, 15 μM nigericin, 3 hours) and over 100000 nM in assay [1].

Regarding `Cc1cc(C(F)(F)F)cc(O)c1-c1ccc(NC[C@@H](O)C(C)C)nn1` [Ex 90a, (S)-2-(6-((2-Hydroxy-3-methylbutyl)amino)pyridazin-3-yl)-3-methyl-5-(trifluoromethyl)phenol], the IC50 in the assay on NLRP3 inflammasome (setting [2]) is 64.2 nM; in assay [1] (Homo sapiens) it was over 33000 nM.

For `Cc1ncccc1CNc1ccc(-c2c(O)cc(C(F)(F)F)cc2Cl)nn1` [Ex 34, 3-Chloro-2-(6-(((2-methylpyridin-3-yl)methyl)amino)pyridazin-3-yl)-5-(trifluoromethyl)phenol], the IC50 is 496 nM in the assay with NLRP3 inflammasome (setting [2]) and over 100000 nM in assay [1] (Homo sapiens).

Turning to `Cc1cc(C(F)(F)F)cc(O)c1-c1ccc(NCC(C)(C)O)nn1` [Ex 15, 2-(6-((2-Hydroxy-2-methylpropyl)amino)pyridazin-3-yl)-3-methyl-5-(trifluoromethyl)phenol], the IC50 is 85.9 nM in the assay on NLRP3 inflammasome (setting [2]) and over 100000 nM in assay [1] (Homo sapiens).

As to `Cc1cc(C(F)(F)F)cc(O)c1-c1ccc(NC2(C)CCCN(C)C2)nn1` (stereo not shown) [Ex 52, 2-(6-((1,3-Dimethylpiperidin-3-yl)amino)pyridazin-3-yl)-3-methyl-5-(trifluoromethyl)phenol TFA-salt], the values for the IC50 (in the assay on NLRP3 inflammasome (setting [2]); in assay [1] (Homo sapiens)) were 186 nM and over 100000 nM, respectively.

Take `Oc1cc(C(F)(F)F)cc(Cl)c1-c1ccc(N[C@H]2C[C@@H](O)C2)nn1` [Ex 31, 3-Chloro-2-(6-((cis-3-hydroxycyclobutyl)amino)pyridazin-3-yl)-5-(trifluoromethyl)phenol]: the IC50 with NLRP3 inflammasome (setting [2]) is 167 nM; in assay [1] (Homo sapiens), over 100000 nM.

For the compound `Cc1ncccc1CNc1ccc(-c2c(O)cc(Cl)cc2C(F)(F)F)nn1` [Ex 35, 5-Chloro-2-(6-(((2-methylpyridin-3-yl)methyl)amino)pyridazin-3-yl)-3-(trifluoromethyl)phenol], the IC50 was 243 nM in the assay on NLRP3 inflammasome (setting [2]) and over 100000 nM in assay [1] (Homo sapiens).
